# Key:
# [1] = Flow rheometry test of PCL-PVAc-PEG/Vitamin E composites; format: physicochemical; settings: flow mode, 20±1° C., shear stress 0.60 to 59.68 Pa
# Method: Rheological Characterization. […] The viscoelastic properties of the composites were evaluated by measuring their shear rate under an applied shear stress. The viscous response, or the loss modulus, is the loss of the rigid structure of the system as a result of the applied stress over strain (G″). The recovery of the polymeric dispersions when lifting the applied stress is known as the elastic (G′) or storage modulus. Tangent of the phase angle (tan δ) is the ratio of the viscous property of the dispersion (G″) to its elastic property (G′). Tan δ is a measure of the relative contribution of the viscous component to the solid characteristics of the material. Materials behave increasingly like a liquid as the tan δ value increases above 1, whereas they behave increasingly like a gel as the tan δ value decreases below 1 [13].
# The characterization of the rheological properties of vitamin E and PCL-PVAc-PEG/Vitamin E composites was carried out with an Advanced AR 2000 controlled stress/controlled rate rheometer (TA Instruments, New Castle, Del., USA) with a 2o, 40 mm cone-plate geometry and a 61 μm gap between the plates. Approximately 0.6 mL of each sample was carefully placed on the lower plate. […]
# Flow Rheometry Test. The flow behavior and complex viscosity (η) of the PCL-PVAc-PEG/Vitamin E composites were measured in flow mode at 20±1° C. under an applied shear stress from 0.60 to 59.68 Pa. […]
# [2] = Texture analysis of PCL-PVAc-PEG/Vitamin E composites (hardness, adhesiveness, cohesiveness); format: physicochemical; settings: probe compression 2 mm/s to 4 mm depth, 20±1° C.
# Method: Texture Analysis. Texture analysis is a technique that has been widely utilized for the mechanical characterization of food and pharmaceutical products. The mechanical characteristics of the PCL-PVAc-PEG/Vitamin E composites were determined by using a TA-XT plus texture analyzer (Texture Technologies Corp and Stable Micro Systems, Ltd, Scarsdale, N.Y., USA) equipped with a 50 kg load cell and fitted with a 35 mm flat-faced stainless-steel cylindrical probe. Briefly, 10 g sample of each composite was placed in a 25 mL jacketed reaction beaker. Before analysis, air bubbles were removed from the samples by maintaining the reaction beaker at 80° C. for approximately 30 minutes. Samples were then allowed to equilibrate to room temperature for 24 h. After equilibration, samples were tested for their texture properties by compressing the probe into the surface of each sample at a rate of 2 mm/s to a depth of 4 mm, after which the probe was retracted at a rate of 2 mm/s. Composite Hardness, adhesiveness, and cohesiveness were then estimated from the generated force-time plots. At least three replicate analyses were carried out for each composite using a freshly prepared sample. Data collection and calculation were determined by the Texture Exponent 6.1.7.0 software package.
# Texture Analysis. Texture profile analysis (TPA) of the PCL-PVAc-PEG/Vitamin E composites was carried out to study their compressional flow properties. It provided valuable information about the impact of PCL-PVAc-PEG load on the hardness, adhesiveness, and cohesiveness of the composites (FIG. 9). These characteristics quantify sample deformation under compression. Hardness describes the stress/work required to remove the sample from the container and to subsequently apply it to the site of application. It is defined as the force required to acquire a given deformation which is the same as the maximum peak force during compression. Hardness should be low in order to allow the material to be easily removed from the container. […]
# [3] = 24° C.; cited from earlier work
smiles,measurement,setting,value
"Cc1c(C)c2c(c(C)c1O)CCC(C)(CCCC(C)CCCC(C)CCCC(C)C)O2 (racemic) [pure vitamin E, DL-α-Tocopherol]",Viscosity,[1],5.9 Pa·s
same,Adhesiveness,[2],0.01 kg·s
same,Cohesiveness,[2],0.02 kg·s
same,Hardness,[2],0.021 kg
same,reported viscosity,[3],2480 centipoise
